Experimental data reported in patent US20150133373A1, “TRANSMUCOSAL DELIVERY OF ENGINEERED POLYPEPTIDES” (priority 2012, published 2015).
Read-outs that look alike come from different tables or passages of the source. No end group written: not given here. *: point of attachment. maleimido‑mono‑amide‑DOTA = O=C(O)CN1CCN(CC(=O)O)CCN(CC(=O)NCCN2C(=O)CC(*)C2=O)CCN(CC(=O)O)CC1

Assays:
[1] = test system: CD3+CD4+ T cells (PBMC from 52 human Caucasian individuals)
[2] = test system: IgG molecules present in normal human sera; assay: Serum response analysis (ELISA, IgG binding to albumin binding polypeptides)
Experimental: Each serum sample was tested as a singlet.

NIH/Swiss mice = assay: OGTT DOA (oral glucose tolerance test for duration of action) in NIH/Swiss mice; type: in vivo, mouse; conditions: for % Glucose Lowering Compared to Vehicle: Table 6, 25 nmol/kg IP at t=−1 day, blood glucose at 30 min after glucose gavage ([…]), 4 hr fasted NIH/Swiss female mice; for activity in OGTT DOA when dosed 24 hours before the glucose gavage (in words): dosed at t-24 hours
[3] = Stability in a pancreatin enzyme mixture; type: in vitro ADME; conditions: isolated enzyme pancreatin
[4] = Melting temperature (Tm) by circular dichroism; type: physicochemical; conditions: CD at 221 nm, 20° to 90° C., 1×PBS, 0.4-0.5 mg/ml
Experimental: Purified albumin binding polypeptide variants were diluted in 1×PBS, to final concentrations between 0.4 and 0.5 mg/ml. Circular dichroism (CD) analysis was performed on a Jasco J-810 spectropolarimeter in a cell with an optical path-length of 1 mm. In the variable temperature measurements, the […] was measured at 221 nm from 20° to 90° C., with a temperature slope of 5° C./min.
The melting temperatures (Tm) of the different albumin binding polypeptide variants were calculated by determining the midpoint of the transition in the CD vs. temperature plot.

C57BL6 female mice = assay: Kidney vacuolization (cytoplasmic vacuolation of renal cortical tubular epithelial cells); type: in vivo, mouse; conditions: Example 32; sc injection on days 0-6, kidneys on day 7
Experimental: (§1) With some drugs, such as some pegylated proteins, undesirable vacuoles can form in cytoplasm of epithelial cells lining the proximal convoluted tubules, which is an undesirable toxicity measure. […] C57BL6 female mice (n=2 cages, 3 mice/cage) were weighed daily 3 hours prior to lights out Immediately after weighing, on days 0-6 mice were injected subcutaneously with test compound. Mice were sacrificed on day 7 and kidneys submitted for histopathology. […] A positive control compound known to cause vacuole formation was scored as 3. The ABD polypeptide itself scored 0.
as §1, with “3.” for “3. The ABD polypeptide itself scored 0.”

Pancreatin = assay: Stability in a pancreatin enzyme mixture; type: in vitro ADME; conditions: pH 6.8
GLP-1 receptor = molecular target: T1, GLP-1 receptor (Rattus norvegicus, UniProt P32301); assay: GLP-1 receptor functional activity (cAMP induction, HTRF cell-based assay, 6-23 (clone 6) cells)
T1 construct: cells that endogenously express GLP-1R; host or cells: rat thyroid carcinoma 6-23 (clone 6) cells
T1 sequence (P32301 22-463): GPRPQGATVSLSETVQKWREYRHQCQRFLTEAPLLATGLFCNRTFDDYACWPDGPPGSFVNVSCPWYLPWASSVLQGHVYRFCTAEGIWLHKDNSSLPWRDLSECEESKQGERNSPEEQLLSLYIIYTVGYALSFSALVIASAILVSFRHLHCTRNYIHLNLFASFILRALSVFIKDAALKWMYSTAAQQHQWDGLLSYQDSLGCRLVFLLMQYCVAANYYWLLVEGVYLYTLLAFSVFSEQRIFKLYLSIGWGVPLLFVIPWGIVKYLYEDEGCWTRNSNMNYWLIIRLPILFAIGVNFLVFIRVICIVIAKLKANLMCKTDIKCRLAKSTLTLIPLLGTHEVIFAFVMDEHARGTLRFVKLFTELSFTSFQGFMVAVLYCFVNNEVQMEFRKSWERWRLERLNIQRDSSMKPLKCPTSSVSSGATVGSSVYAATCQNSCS

CC[C@H](C)[C@H](NC(=O)[C@H](C)NC(=O)[C@H](CC(=O)O)NC(=O)[C@H](CCCCN)NC(=O)[C@H](CC(C)C)NC(=O)[C@H](C)NC(=O)[C@H](CCC(=O)O)NC(=O)[C@@H](NC(=O)CNC(=O)[C@H](CCC(=O)O)NC(=O)[C@@H](NC(=O)[C@@H](NC(=O)[C@H](CCCCN)NC(=O)[C@H](C)NC(=O)[C@H](CCCCN)NC(=O)[C@H](CC(=O)O)NC(=O)[C@@H](NC(=O)[C@H](CC(C)C)NC(=O)[C@H](CCCNC(=N)N)NC(=O)[C@H](CCCCN)NC(=O)[C@H](Cc1ccc(O)cc1)NC(=O)[C@H](Cc1ccccc1)NC(=O)[C@H](CC(=O)O)NC(=O)[C@H](CO)NC(=O)[C@@H](NC(=O)CNC(=O)[C@H](Cc1ccc(O)cc1)NC(=O)[C@H](CSC1CC(=O)N(CCNC(=O)CN2CCN(CC(=O)O)CCN(CC(=O)O)CCN(CC(=O)O)CC2)C1=O)NC(=O)[C@H](CC(=O)O)NC(=O)[C@H](CC(C)C)NC(=O)[C@H](CCC(=O)O)NC(=O)[C@H](C)NC(=O)[C@H](CC(N)=O)NC(=O)[C@H](C)NC(=O)[C@H](C)NC(=O)[C@H](CCC(=O)O)NC(=O)[C@H](CCCCN)NC(=O)[C@H](C)NC(=O)[C@H](CO)NC(=O)[C@H](C)NC(=O)[C@H](CC(C)C)NC(=O)CN)C(C)C)[C@@H](C)CC)[C@@H](C)O)C(C)C)C(C)C)C(=O)N[C@@H](CC(C)C)C(=O)N[C@@H](C)C(=O)N[C@@H](C)C(=O)N[C@@H](CC(C)C)C(=O)N1CCC[C@H]1C(=O)O (stereo partly drawn) [PEP07968]
immunogenicity classification (in words) [1]: non-immunogenic | number of responding individuals as compared to buffer only [1]: 1 | reactivity with IgG of human sera (in words) [2]: least reactivity

HGEGTFTSDLSKQMEEEAVRLFIEWLKNTGGGGSASLAEAKVLANRELDKYGVSDFYKRLINKAKTVEGVEALKLHILAALP [Cmpd 10]
% Glucose Lowering Compared to Vehicle (NIH/Swiss mice): −22%

CC[C@H](C)[C@H](NC(=O)[C@H](Cc1ccccc1)NC(=O)[C@H](CCC(=O)O)NC(=O)[C@H](CCCCN)NC(=O)[C@H](C)NC(=O)[C@H](C)NC(=O)[C@H](CCC(N)=O)NC(=O)CNC(=O)[C@H](CCC(=O)O)NC(=O)[C@H](CC(C)C)NC(=O)[C@H](Cc1ccc(O)cc1)NC(=O)[C@H](CO)NC(=O)[C@H](CO)NC(=O)[C@@H](NC(=O)[C@H](CC(=O)O)NC(=O)[C@H](CO)NC(=O)[C@@H](NC(=O)[C@H](Cc1ccccc1)NC(=O)[C@@H](NC(=O)CNC(=O)[C@H](CCC(=O)O)NC(=O)[C@H](C)NC(=O)[C@@H](N)Cc1c[nH]cn1)[C@@H](C)O)[C@@H](C)O)C(C)C)C(=O)N[C@@H](C)C(=O)N[C@@H](Cc1c[nH]c2ccccc12)C(=O)N[C@@H](CC(C)C)C(=O)N[C@H](C(=O)N[C@@H](CCCCN)C(=O)NCC(=O)N[C@@H](CCCNC(=N)N)C(N)=O)C(C)C [GLP-1 (7-36) (Human)]
remaining at 0.5 h, 30 micromolar ([3]; pancreatin enzyme mixture, 50 mM phosphate buffer pH 6.8, 37° C., 30 minutes, read-out: Percent Remaining at 30 minutes): 39% | remaining at 1 h, 30 micromolar ([3]; pancreatin enzyme mixture, 50 mM phosphate buffer pH 6.8, 37° C., 60 minutes, read-out: Percent Remaining at 60 minutes): 24%

GSLAEAKEAANAELDSYGVSDFYKRLIDKAKTVEGVEALKDAILAALP [PEP07986]
activity in OGTT DOA when dosed 24 hours before the glucose gavage (in words) (NIH/Swiss mice): inactive

TT: tetanus toxoid (TT, Statens Serum Institut), positive control [reference compound]
number of responding individuals as compared to buffer only ([1]; 52 donors): 49

HGEGTFTSDLSKQLEEEAVRLFIEWLKQGGPSKEIISGGSLAEAKVLANRELDKYGVSDFYKRLINKAKTVEGVEALKLHILAALP [Cmpd 33]
% Glucose Lowering Compared to Vehicle (NIH/Swiss mice): −19%

PEP07975: DOTA-conjugated PEP07834, SEQ ID NO:460, via Cys14 with maleimido-mono-amide-DOTA; amidated at the C-terminus (ALASAKEAANAELDC(maleimido‑mono‑amide‑DOTA)YGVSDFYKRLIDKAKTVEGVEALKDAILAALP-NH2)
Tm [4]: 50 °C

HGEGTFTSDLSKQLEEEAVRLFIEWLKQGGPSKEIISTGGGGSASGSLAEAKEAANAELDSYGVSDFYKRLIDKAKTVEGVEALKDAILAALP [Cmpd 2-5]
Severity score for cytoplasmic vacuolation of renal cortical tubular epithelial cells (C57BL6 female mice): 0

GSSLASAKEAANAELDSYGVSDFYKRLIDKAKTVEGVEALKDAILAALP [PEP07554]
Tm [4]: 58 °C | reactivity with IgG of human sera (in words) [2]: least reactivity

CCCCCCCCCCCCCCCC(=O)N[C@@H](CCC(=O)NCCCC[C@H](NC(=O)[C@H](C)NC(=O)[C@H](C)NC(=O)[C@H](CCC(N)=O)NC(=O)CNC(=O)[C@H](CCC(=O)O)NC(=O)[C@H](CC(C)C)NC(=O)[C@H](Cc1ccc(O)cc1)NC(=O)[C@H](CO)NC(=O)[C@H](CO)NC(=O)[C@@H](NC(=O)[C@H](CC(=O)O)NC(=O)[C@H](CO)NC(=O)[C@@H](NC(=O)[C@H](Cc1ccccc1)NC(=O)[C@@H](NC(=O)CNC(=O)[C@H](CCC(=O)O)NC(=O)[C@H](C)NC(=O)[C@@H](N)Cc1cnc[nH]1)[C@@H](C)O)[C@@H](C)O)C(C)C)C(=O)N[C@@H](CCC(=O)O)C(=O)N[C@@H](Cc1ccccc1)C(=O)N[C@H](C(=O)N[C@@H](C)C(=O)N[C@@H](Cc1c[nH]c2ccccc12)C(=O)N[C@@H](CC(C)C)C(=O)N[C@H](C(=O)N[C@@H](CCCNC(=N)N)C(=O)NCC(=O)N[C@@H](CCCNC(=N)N)C(=O)NCC(=O)O)C(C)C)[C@@H](C)CC)C(=O)O [liraglutide, [N-epsilon-(gamma-Glu(N-alpha-hexadecanoyl))-Lys26,Arg34]-GLP-1-(7-37)-acid]
susceptibility to pancreatic enzymes (in words) (Pancreatin): relatively resistant to pancreatic enzymes | remaining at 0.5 h, 30 micromolar ([3]; pH 6.8): 100% | remaining at 1 h, 30 micromolar ([3]; pH 6.8): 100%

HGEGTFTSDLSKQLEEEAVRLFIEWLKNGGPSSGAPPKSTGGGGSASGSLAEAKEAANAELDSYGVSDFYKRLIDKAKTVEGVEALKDAILAALP [Cmpd 2-6]
Percent glucose lowering compared to vehicle (NIH/Swiss mice; Table 17, 25 nmol/Kg, OGTT at 24 hours post drug administration, 30 minutes post gavage): −22%

HGEGTFTSDLSKQMEEEAVRLFIEWLKNGGSLAEAKVLANRELDKYGVSDFYKRLINKAKTVEGVEALKLHILAALP [Cmpd 32]
activity in OGTT DOA when dosed 24 hours before the glucose gavage (in words) (NIH/Swiss mice): no glucose lowering

HGEGTFTSDLSKQLEEEAVRLFIEWLKQGGPSKEIISTGGGGSGGGSGGGSGGGSASLAEAKVLANRELDKYGVSDFYKRLINKAKTVEGVEALKLHILAALP [Cmpd 8]
% Glucose Lowering Compared to Vehicle (NIH/Swiss mice): −21%

B1: HGEGTFTSDLSKQLEEEAVRLFIEWLKNTGGGGSASGSLAEAKEAANAELDSYGVSDFYKRLIDKAKTVEGVEALKDAILAALP (protein)
chain: HGEGTFTSDLSKQLEEEAVRLFIEWLKNTGGGGSASGSLAEAKEAANAELDSYGVSDFYKRLIDKAKTVEGVEALKDAILAALP
activity in OGTT DOA when dosed 24 hours before the glucose gavage (in words) (NIH/Swiss mice): did not display 24 h duration | in vitro GLP-1 receptor functional activity (in words) (GLP-1 receptor): active in vitro against the GLP-1 receptor
